Among the data in patent US8664261B2, “Organic compounds having cooling properties” (Givaudan S.A., priority 2009, dated 2014) are Concentration and Perceived cooling sensation values, retold here.

Experiment [1] deals with panelists. Put plainly: Cooling intensity: panelists taste aqueous solutions, compared with menthol at 2 ppm. The experiment is classed as in vivo. As to conditions: aqueous solution with cooling intensity similar to or slightly higher than a solution of menthol at 2 ppm; tasted by small group of panelists.
The subject of experiment [2] is panelists. The experiment in a line: Application in toothpaste: duration of perceived cooling sensation after brushing. The experiment is classed as in vivo. As to conditions: 0.10 g of 10% ethanol solution of compound + 0.03 g saccharin in 9.96 g opaque toothgel base; teeth brushed, mouth rinsed with water. The method, then:
0.10 g of a 10% solution in ethanol of a compound of formula (I) listed in Table 4 below and 0.03 g saccharin were mixed in 9.96 g of an opaque toothgel base. A piece of the thus prepared toothpaste was put on a toothbrush and a panelist's teeth were brushed. The mouth was rinsed with water and the water spat out. A long lasting cooling sensation was felt by the panelist in all areas of the mouth. The cooling sensation was perceived for up to 60 min (see Table 5).

In experiment [1], `CC1CCC(C(C)C)C(O)C1` (stereo not drawn) [I-Menthol, reference compound] registered a Concentration of 2.0 ppm.
On the same count and under the same terms, the value for `CC(C)[C@@H]1CC[C@@H](C)C[C@H]1C(=O)NCCc1ccccn1` [(1R,2S,5R)-2-isopropyl-5-methyl-N-(2-(pyridin-2-yl)ethyl)cyclohexanecarboxamide, reference compound] was 0.02 ppm.
Consider `Cc1[nH]c2ccccc2c1CCNC(=O)[C@@H]1C[C@H](C)CC[C@H]1C(C)C` [Example 2I, (1R,2S,5R)-2-isopropyl-5-methyl-N-(2-(2-methyl-1H-indol-3-yl)ethyl)cyclohexane-carboxamide], for which the Perceived cooling sensation in experiment [2] turned out to be 60 min.
As to `CC(C)[C@@H]1CC[C@@H](C)C[C@H]1C(=O)NCCc1ncc[nH]1` [Example 2H, (1R,2S,5R)-N-(2-(1H-imidazol-2-yl)ethyl)-2-isopropyl-5-methlycyclohexane-carboxamide], in experiment [1], the Concentration is 0.2 ppm. The Perceived cooling sensation in experiment [2] was determined as 40 min.
Taken in the same sequence, the figures for `CC(Cc1ccsc1)NC(=O)[C@@H]1C[C@H](C)CC[C@H]1C(C)C` (stereo partly drawn) [Example 2M, (1R,2S,5R)-2-isopropyl-5-methyl-N-(1-(thiophen-3-yl)propan-2-yl)cyclohexane-carboxamide] were 0.002 ppm and 40 min.
For `CC(Cc1cccnc1)NC(=O)[C@@H]1C[C@H](C)CC[C@H]1C(C)C` (stereo partly drawn) [Example 1, (1R,2S,5R)-2-isopropyl-5-methyl-N-(1-(pyridin-3-yl)propan-2-yl)cyclohexanecarboxamide] the same measures were 0.01 ppm and 30 min.
Compound `CCNC(=O)C1CC(C)CCC1C(C)C` (stereo not drawn) [N-ethyl p-menthanecarboxamide, reference compound] registered a Concentration in experiment [1] of 1.5 ppm.
In the case of `CC(C)[C@@H]1CC[C@@H](C)C[C@H]1C(=O)Nc1ccc(CC#N)cc1` [(1R,2S,5R)-N-(4-(cyanomethyl)phenyl)-2-isopropyl-5-methylcyclohexanecarboxamide, reference compound], the Concentration in experiment [1] stood at 0.2 ppm.
The same measure, in the same setting: in the case of `CC(C)[C@@H]1CC[C@@H](C)C[C@H]1C(=O)NCCn1ccc2ccccc21` [Example 2J, (1R,2S,5R)-N-(2-(1H-indol-1-yl)ethyl)-2-isopropyl-5-methylcyclohexanecarboxamide] it was 0.002 ppm.
